# Measurements published in patent publication US7183415B2, “Quinoline compound” (Takeda Pharmaceutical Company Limited, priority 2001, dated 2007).
row,SMILES,melting point
1,"Cc1ccc(C2CCN(C(=O)Nc3ccc4cc(CN5CCCC5)cnc4c3)CC2)cc1 [Example 15, 4-(4-methylphenyl)-N-[3-(1-pyrrolidinylmethyl)-7-quinolinyl]-1-piperidine carboxamide]",244 to 246 °C
2,"O=C(Nc1ccc2cc(CN3CCCC3)cnc2c1)N1CCC(c2ccc(Cl)cc2)CC1 [Example 16, 4-(4-chlorophenyl)-N-[3-(1-pyrrolidinylmethyl)-7-quinolinyl]-1-piperidine carboxamide]",249 to 251 °C
3,"Cc1c(NC(=O)c2ccc(-c3ccccc3)cc2)ccc2cc(CN3CCCC3)cnc12 [Example 17, N-[8-methyl-3-(1-pyrrolidinylmethyl)-7-quinolinyl][1,1′-biphenyl]-4-carboxamide]",184 to 186 °C
4,"COc1ccc(-c2ccc(C(=O)Nc3ccc4cc(CN5CCCC5)cnc4c3C)cc2)cc1 [Example 18, 4′-methoxy-N-[8-methyl-3-(1-pyrrolidinylmethyl)-7-quinolinyl][1,1′-biphenyl]-4-carboxamide]",210 to 213 °C
5,"Cc1ccc(-c2ccc(C(=O)Nc3ccc4cc(CN5CCCC5)cnc4c3C)cc2)cc1 [Example 20, 4′-methyl-N-[8-methyl-3-(1-pyrrolidinylmethyl)-7-quinolinyl][1,1′-biphenyl]-4-carboxamide]",177 to 179 °C
6,"Cc1c(NC(=O)c2ccc(-c3ccc(Cl)cc3)cc2)ccc2cc(CN3CCCC3)cnc12 [Example 21, 4′-chloro-N-[8-methyl-3-(1-pyrrolidinylmethyl)-7-quinolinyl][1,1′-biphenyl]-4-carboxamide]",227 to 229 °C
7,"CCN(CC)Cc1cnc2cc(NC(=O)c3ccc(-c4ccc(Cl)cc4)cc3)c(OC)cc2c1 [Example 22, 4′-chloro-N-{3-[(diethylamino)methyl]-6-methoxy-7-quinolinyl}[1,1′-biphenyl]-4-carboxamide]",271 °C (dec.)
8,"COc1cc2cc(CN3CCCC3)cnc2cc1NC(=O)c1ccc(-c2ccc(Cl)cc2)cc1 [Example 23, 4′-chloro-N-[6-methoxy-3-(1-pyrrolidinylmethyl)-7-quinolinyl][1,1′-biphenyl]-4-carboxamide]",271 °C (dec.)
9,"COc1cc2cc(CN3CCCCC3)cnc2cc1NC(=O)c1ccc(-c2ccc(Cl)cc2)cc1 [Example 24, 4′-chloro-N-[6-methoxy-3-(1-piperidinylmethyl)-7-quinolinyl][1,1′-biphenyl]-4-carboxamide]",236 °C (dec.)
10,"O=C(Nc1cc2ncc(CN3CCCC3)cc2cc1Cl)c1ccc(-c2ccc(Cl)cc2)cc1 [Example 25, 4′-chloro-N-[6-chloro-3-(1-pyrrolidinylmethyl)-7-quinolinyl][1,1′-biphenyl]-4-carboxamide]",188 °C (dec.)
11,"Cc1ccc(-c2ccc(C(=O)Nc3ccc4cc(CN5CCC(C(N)=O)CC5)cnc4c3C)cc2)cc1 [Example 26, 1-[(8-methyl-7-{[(4′-methyl-1,1′-biphenyl-4-yl)carbonyl]amino}-3-quinolinyl)methyl]-4-piperidine carboxamide]",287 °C (dec.)
12,"O=C(Nc1ccc2cc(CN3CCCCCC3)cnc2c1)c1ccc(-c2ccc(Cl)cc2)cc1 [Example 27, N-[3-(1-azepanylmethyl)-7-quinolinyl]-4′-chloro[1,1′-biphenyl]-4-carboxamide]",204 °C
13,"Cc1ccc(-c2ccc(C(=O)Nc3ccc4cc(CN5CCCCCC5)cnc4c3)cc2)cc1 [Example 28, N-[3-(1-azepanylmethyl)-7-quinolinyl]-4′-methyl[1,1′-biphenyl]-4-carboxamide]",209 °C
14,"O=C(Nc1ccc2cc(CN3CCCCCC3)cnc2c1)c1ccc(-c2ccc(F)cc2)cc1 [Example 29, N-[3-(1-azepanylmethyl)-7-quinolinyl]-4′-fluoro[1,1′-biphenyl]-4-carboxamide]",202 °C
15,"COc1ccc(-c2ccc(C(=O)Nc3ccc4cc(CN5CCCCCC5)cnc4c3)cc2)cc1 [Example 30, N-[3-(1-azepanylmethyl)-7-quinolinyl]-4′-methoxy[1,1′-biphenyl]-4-carboxamide]",212 °C (dec.)
16,"O=C(Nc1ccc2cc(CN3CCCCCC3)cnc2c1)c1ccc(-c2ccccc2)cc1 [Example 31, N-[3-(1-azepanylmethyl)-7-quinolinyl][1,1′-biphenyl]-4-carboxamide]",205 °C (dec.)
17,"O=C(Nc1ccc2cc(CN3CCCCCC3)cnc2c1)c1ccc(-c2ccc(Cl)cc2)nc1 [Example 32, N-[3-(1-azepanylmethyl)-7-quinolinyl]-6-(4-chlorophenyl)nicotinamide]",233 °C (dec.)
18,"Cc1ccc(-c2ccc(C(=O)Nc3ccc4cc(CN5CCCCCC5)cnc4c3)cn2)cc1 [Example 33, N-[3-(1-azepanylmethyl)-7-quinolinyl]-6-(4-methylphenyl)nicotinamide]",237 °C (dec.)
19,"O=C(Nc1ccc2cc(CN3CCCCCC3)cnc2c1)N1CCC(c2ccc(Cl)cc2)CC1 [Example 34, N-[3-(1-azepanylmethyl)-7-quinolinyl]-4-(4-chlorophenyl)-1-piperidine carboxamide]",247 °C (dec.)

row,SMILES,melting point
1,"Cc1ccc(C2CCN(C(=O)Nc3ccc4cc(CN5CCCCCC5)cnc4c3)CC2)cc1 [Example 35, N-[3-(1-azepanylmethyl)-7-quinolinyl]-4-(4-methylphenyl)-1-piperidine carboxamide]",240 °C (dec.)
2,"Cc1cc2cc(CN3CCCC3)cnc2cc1NC(=O)c1ccc(-c2ccc(Cl)cc2)cc1 [Example 39, 4′-chloro-N-[6-methyl-3-(1-pyrrolidinylmethyl)-7-quinolinyl][1,1′-biphenyl]-4-carboxamide]",214 to 217 °C
3,"NC(=O)C1CCN(Cc2cnc3cc(NC(=O)c4ccc(-c5ccc(F)cc5)cc4)ccc3c2)CC1 [Example 42, 1-[(7-{[(4′-fluoro[1,1′-biphenyl]-4-yl)carbonyl]amino}-3-quinolinyl)methyl]-4-piperidine carboxamide]",261 to 265 °C
4,"CC(=O)NC1CCN(Cc2cnc3cc(NC(=O)c4ccc(-c5ccc(F)cc5)cc4)ccc3c2)C1 (stereo not shown) [Example 43, N-(3-{[3-(acetylamino)-1-pyrrolidinyl]methyl}-7-quinolinyl)-4′-fluoro[1,1′-biphenyl]-4-carboxamide]",250 to 253 °C
5,"CCNC(=O)CC1CCN(Cc2cnc3cc(NC(=O)c4ccc(-c5ccc(F)cc5)cc4)ccc3c2)CC1 [Example 44, N-[3-({4-[2-(ethylamino)-2-oxoethyl]-1-piperidinyl}methyl)-7-quinolinyl]-4′-fluoro[1,1′-biphenyl]-4-carboxamide]",224 to 227 °C
6,"O=C(Nc1ccc2cc(CN3CCC(CO)CC3)cnc2c1)c1ccc(-c2ccc(F)cc2)cc1 [Example 45, 4′-fluoro-N-(3-{[4-(hydroxymethyl)-1-piperidinyl]methyl}-7-quinolinyl)[1,1′-biphenyl]-4-carboxamide]",191 to 195 °C
7,"O=C(Nc1ccc2cc(CN3CCC(CCO)CC3)cnc2c1)c1ccc(-c2ccc(F)cc2)cc1 [Example 46, 4′-fluoro-N-(3-{[4-(2-hydroxyethyl)-1-piperidinyl]methyl}-7-quinolinyl)[1,1′-biphenyl]-4-carboxamide]",193 to 196 °C
8,"CCNC(=O)CCCC1CCN(Cc2cnc3cc(NC(=O)c4ccc(-c5ccc(F)cc5)cc4)ccc3c2)CC1 [Example 47, N-[3-({4-[4-(ethylamino)-4-oxobutyl]-1-piperidinyl}methyl)-7-quinolinyl]-4′-fluoro[1,1′-biphenyl]-4-carboxamide]",209 to 213 °C
9,"CCNC(=O)COC1CCN(Cc2cnc3cc(NC(=O)c4ccc(-c5ccc(F)cc5)cc4)ccc3c2)CC1 [Example 48, N-[3-({4-[2-(ethylamino)-2-oxoethoxy]-1-piperidinyl}methyl)-7-quinolinyl]-4′-fluoro[1,1′-biphenyl]-4-carboxamide]",228 to 230 °C
10,"O=C(Nc1cc2ncc(CN3CCCC3)cc2cc1F)c1ccc(-c2ccc(F)cc2)cc1 [Example 50, 4′-fluoro-N-[6-fluoro-3-(1-pyrrolidinylmethyl)-7-quinolinyl][1,1′-biphenyl]-4-carboxamide]",198 to 200 °C
11,"O=C(Nc1cc2ncc(CN3CCCC3)cc2cc1F)c1ccc(-c2ccc(Cl)cc2)cc1 [Example 51, 4′-chloro-N-[6-fluoro-3-(1-pyrrolidinylmethyl)-7-quinolinyl][1,1′-biphenyl]-4-carboxamide]",218 to 220 °C
12,"O=C(Nc1cc2ncc(CN3CCCC3)cc2cc1F)c1ccc(-c2ccccc2)cc1 [Example 52, N-[6-fluoro-3-(1-pyrrolidinylmethyl)-7-quinolinyl][1,1′-biphenyl]-4-carboxamide]",206 to 208 °C
13,"COc1ccc(-c2ccc(C(=O)Nc3cc4ncc(CN5CCCC5)cc4cc3F)cc2)cc1 [Example 53, N-[6-fluoro-3-(1-pyrrolidinylmethyl)-7-quinolinyl]-4′-methoxy[1,1′-biphenyl]-4-carboxamide]",184 to 186 °C
14,"Cc1ccc(-c2ccc(C(=O)Nc3cc4ncc(CN5CCCC5)cc4cc3F)cc2)cc1 [Example 54, N-[6-fluoro-3-(1-pyrrolidinylmethyl)-7-quinolinyl]-4′-methyl[1,1′-biphenyl]-4-carboxamide]",202 to 204 °C
15,"O=C(Nc1cc2ncc(CN3CCCC3)cc2cc1F)c1ccc(-c2ccc(C(F)(F)F)cc2)cc1 [Example 55, N-[6-fluoro-3-(1-pyrrolidinylmethyl)-7-quinolinyl]-4′-(trifluoromethyl)[1,1′-biphenyl]-4-carboxamide]",209 to 212 °C
16,"O=C(Nc1cc2ncc(CN3CCCC3)cc2cc1F)c1ccc(-c2ccc(OC(F)(F)F)cc2)cc1 [Example 56, N-[6-fluoro-3-(1-pyrrolidinylmethyl)-7-quinolinyl]-4′-(trifluoromethoxy)[1,1′-biphenyl]-4-carboxamide]",184 to 187 °C
17,"O=C(Nc1cc2ncc(CN3CCCC3)cc2cc1F)c1ccc(-c2ccccc2)cc1F [Example 58, 3-fluoro-N-[6-fluoro-3-(1-pyrrolidinylmethyl)-7-quinolinyl][1,1′-biphenyl]-4-carboxamide]",163 to 164 °C
18,"COc1ccc(-c2ccc(C(=O)Nc3cc4ncc(CN5CCCC5)cc4cc3F)c(F)c2)cc1 [Example 59, 3-fluoro-N-[6-fluoro-3-(1-pyrrolidinylmethyl)-7-quinolinyl]-4′-methoxy[1,1′-biphenyl]-4-carboxamide]",174 to 176 °C
